Assay [1] addresses T1, Human D1 (Homo sapiens (Human), UniProt P21728). In words: Human D1 Receptor Binding Assay ([3H]-SCH23390 competition). Particulars: read-out: Human D1 Receptor Binding, Ki (μM); Geometric mean of 2-3 determinations; over-expressing LTK human cell lines, 0.5 nM [3H]-SCH23390, 30 min at 37° C.; footnote b = single determination, c = geometric mean of ≧4 determinations. The procedure:
D1 binding assays were performed using over-expressing LTK human cell lines. […] These ligand and tissue concentrations were used in time course studies to determine linearity and equilibrium conditions for binding. […] The pellet was resuspended in assay buffer [50 mM Tris (pH 7.4@ RT) containing 4 mM MgSO4 and 0.5 mM EDTA]. […] Non-specific binding was determined by radioligand binding in the presence of a saturating concentration of (+)-Butaclamol (10 μM), a D1 antagonist. After a 30 minute incubation period at 37° C., assay samples were rapidly filtered through Unifilter-96 GF/B PEI-coated filter plates and rinsed with 50 mM Tris buffer (pH 7.4 at 4° C.). […] Ki values were calculated according to the Cheng-Prusoff equation: […]

Assay [2] addresses T1, Human D1. Kind of assay: D1 cAMP HTRF Assay. It counts as cell-based. The following applies: HEK293T/hD1#1 stable cell line, 30 min at room temperature, footnote a = geometric mean of ≧7 determinations. An excerpt:
This assay was used to determine the ability of a test compound to agonize (including partially agonize) D1. A Mab anti-cAMP labeled Cryptate visualizes the tracer. […] The signal, therefore, is inversely proportional to the concentration of cAMP in the sample.
The cAMP Dynamic kit was obtained from Cisbio International (Cisbio 62AM4PEJ). Multidrop Combi (Thermo Scientific) was used for assay additions. An EnVision (PerkinElmer) reader was used to read HTRF.
A HEK293T/hD1#1 stable cell line was constructed internally (Pfizer Ann Arbor).
Media was removed and cell pellet was re-suspended in PBS/[…] generating 2e5 cells/mL. […] Working solutions of cAMP-D2 and anti-cAMP-cryptate were prepared according to Cisbio instructions. […] The assay plate was incubated for 1 hour at room temperature. The assay plate was read on an EnVision plate reader using Cisbio recommended settings.
Data analysis was done using computer software. Percent effects were calculated from the compound controls. Ratio EC50 was determined using the raw ratio data from the EnVision reader. The cAMP standard curve was used in an analysis program to determine cAMP concentrations from raw ratio data. cAMP EC50 was determined using the calculated cAMP data.

Broadly, the Ki is the equilibrium dissociation constant of an inhibitor or competing ligand from its target. As usually defined, the EC50 is the concentration needed to bring the measured effect to its halfway point.

Like-named read-outs stand apart in the source and are kept apart here.

T1 sequence (P21728 whole entry): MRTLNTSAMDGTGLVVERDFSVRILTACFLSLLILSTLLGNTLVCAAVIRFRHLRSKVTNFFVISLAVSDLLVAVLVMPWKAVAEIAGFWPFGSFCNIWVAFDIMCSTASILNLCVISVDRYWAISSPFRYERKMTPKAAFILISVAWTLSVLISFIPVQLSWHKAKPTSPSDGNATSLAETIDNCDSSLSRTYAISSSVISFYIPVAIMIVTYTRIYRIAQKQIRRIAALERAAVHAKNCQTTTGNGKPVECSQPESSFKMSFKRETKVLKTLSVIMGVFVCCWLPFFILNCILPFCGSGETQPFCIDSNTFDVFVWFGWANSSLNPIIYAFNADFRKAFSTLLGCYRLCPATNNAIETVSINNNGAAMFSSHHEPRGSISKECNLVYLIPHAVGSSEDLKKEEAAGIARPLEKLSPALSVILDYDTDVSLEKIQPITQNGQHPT

In the case of `Cc1ncnc(C)c1-c1ccc(Oc2nccc3[nH]ccc23)cc1F` [Example 1, 4-[4-(4,6-dimethylpyrimidin-5-yl)-3-fluorophenoxy]-1H-pyrrolo[3,2-c]pyridine], the Ki in assay [1] stood at 0.0303 µM. The EC50 in assay [2] turned out to be 0.176 µM.
Consider `Cc1ncnc(C)c1-c1ccc(Oc2nccc3[nH]ccc23)cc1Cl` [Example 24, 4-[3-chloro-4-(4,6-dimethylpyrimidin-5-yl)phenoxy]-1H-pyrrolo[3,2-c]pyridine], for which the Ki in assay [1] is 0.00984 µM. Further, the EC50 in assay [2] stood at 0.102 µM.
As to `Cc1cc(Oc2nccc3[nH]ccc23)ccc1-c1cc(=O)[nH]nc1C` [Example 29, 6-methyl-5-[2-methyl-4-(1H-pyrrolo[3,2-c]pyridin-4-yloxy)phenyl]pyridazin-3(2H)-one], in assay [1], the Ki turned out to be 0.0679 µM. In addition, the EC50 in assay [2] is 0.119 µM.
For `Cc1ncnc(C#N)c1-c1ccc(Oc2nccc3[nH]ccc23)cc1F` [Example 16, 5-[2-fluoro-4-(1H-pyrrolo[3,2-c]pyridin-4-yloxy)phenyl]-6-methylpyrimidine-4-carbonitrile] the same measures were 0.0283 µM and 0.396 µM.
Taken in the same sequence, the figures for `Cc1ncnc(C)c1-c1ccc(Oc2nccc3[nH]ccc23)c(F)c1F` [Example 23, 4-[4-(4,6-dimethylpyrimidin-5-yl)-2,3-difluorophenoxy]-1H-pyrrolo[3,2-c]pyridine] were 0.0538 µM and 0.59 µM.
Consider `Cc1cc(Oc2nccc3[nH]ccc23)ccc1-c1c(C)cnnc1C` (single isomer, unassigned; ent-1) [Example 11, 4-[4-(3,5-dimethylpyridazin-4-yl)-3-methylphenoxy]-1H-pyrrolo[3,2-c]pyridine, ENT-1], for which the Ki in assay [1] is 0.0141 µM. The EC50 in assay [2] (read-out: Human D1 cAMP HTRF, EC50 (μM), Geometric mean of 2-6 determinations) came to 0.117 µM.

These data come from US8822494B2 (Pfizer Inc., priority 2012, dated 2014).
